# Measurements from patent US20140155389A1, “BICYCLIC INHIBITORS OF ALK” (ABBVIE INC., priority 2011, published 2014).
# Molecular target: T1, ALK (Homo sapiens, UniProt Q9UM73)
# T1 construct: purchased Millipore
# Assay: ALK kinase assay (HTRF)
# Type: biochemical
# Conditions: apparent Ki from IC50 by Cheng-Prusoff; ALK (Millipore) 3 nM or 4 nM, 50 μM ATP, 1 h at room temperature; read-out: HTRF_ALK Human - Ki
# T1 sequence (Q9UM73 19-1620): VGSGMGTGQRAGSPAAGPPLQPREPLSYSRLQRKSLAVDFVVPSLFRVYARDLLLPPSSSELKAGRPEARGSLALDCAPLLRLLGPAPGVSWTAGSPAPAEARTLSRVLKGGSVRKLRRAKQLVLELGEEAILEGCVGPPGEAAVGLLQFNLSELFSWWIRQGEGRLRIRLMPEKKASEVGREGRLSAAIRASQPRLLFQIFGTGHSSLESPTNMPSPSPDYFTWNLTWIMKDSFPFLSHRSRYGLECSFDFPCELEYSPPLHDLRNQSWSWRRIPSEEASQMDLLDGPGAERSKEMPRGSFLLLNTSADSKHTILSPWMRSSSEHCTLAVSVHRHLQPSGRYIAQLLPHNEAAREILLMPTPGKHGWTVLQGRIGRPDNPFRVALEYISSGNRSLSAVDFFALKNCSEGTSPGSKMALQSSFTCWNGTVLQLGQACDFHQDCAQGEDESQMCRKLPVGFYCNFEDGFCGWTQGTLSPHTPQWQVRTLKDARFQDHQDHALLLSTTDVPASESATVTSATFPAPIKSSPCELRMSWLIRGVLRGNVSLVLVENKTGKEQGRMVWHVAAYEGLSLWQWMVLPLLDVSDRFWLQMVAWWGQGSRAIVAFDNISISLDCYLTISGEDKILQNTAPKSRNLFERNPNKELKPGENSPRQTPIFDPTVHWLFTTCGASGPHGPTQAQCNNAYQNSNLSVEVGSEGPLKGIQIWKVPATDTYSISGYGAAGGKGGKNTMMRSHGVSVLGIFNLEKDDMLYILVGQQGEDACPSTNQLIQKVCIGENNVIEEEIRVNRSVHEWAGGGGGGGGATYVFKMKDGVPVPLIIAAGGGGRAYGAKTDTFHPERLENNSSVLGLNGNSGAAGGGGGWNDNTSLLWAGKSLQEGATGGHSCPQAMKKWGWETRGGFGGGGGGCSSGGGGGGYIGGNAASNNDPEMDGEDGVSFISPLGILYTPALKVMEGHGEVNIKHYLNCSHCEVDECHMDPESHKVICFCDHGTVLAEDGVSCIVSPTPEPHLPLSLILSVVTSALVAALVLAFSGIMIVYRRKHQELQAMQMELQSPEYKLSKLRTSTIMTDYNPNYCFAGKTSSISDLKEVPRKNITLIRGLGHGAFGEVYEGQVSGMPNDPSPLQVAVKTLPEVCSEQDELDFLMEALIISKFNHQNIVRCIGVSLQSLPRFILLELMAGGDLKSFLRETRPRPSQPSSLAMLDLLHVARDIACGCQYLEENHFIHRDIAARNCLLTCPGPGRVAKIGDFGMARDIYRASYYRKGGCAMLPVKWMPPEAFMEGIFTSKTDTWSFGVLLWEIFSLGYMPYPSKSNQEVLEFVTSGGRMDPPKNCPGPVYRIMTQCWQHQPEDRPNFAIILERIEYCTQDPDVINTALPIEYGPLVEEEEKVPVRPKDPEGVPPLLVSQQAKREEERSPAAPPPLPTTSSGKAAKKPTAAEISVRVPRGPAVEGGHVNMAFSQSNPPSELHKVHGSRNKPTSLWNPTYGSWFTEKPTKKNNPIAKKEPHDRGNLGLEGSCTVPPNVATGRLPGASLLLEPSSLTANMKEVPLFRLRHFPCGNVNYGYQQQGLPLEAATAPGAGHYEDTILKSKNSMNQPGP
row,Structure (SMILES),Ki [nM]
1,"O=c1[nH]ncc2cc(Cc3c(Cl)cccc3Cl)nc(Nc3ccc(N4CCNCC4)cc3Br)c12 [Example 61, 5-{[2-bromo-4-(piperazin-1-yl)phenyl]amino}-7-(2,6-dichlorobenzyl)pyrido[3,4-d]pyridazin-4(3H)-one]",2
2,"COc1cc(N2CCNCC2)ccc1Nc1nc(Oc2ccccc2Cl)cc2cn[nH]c(=O)c12 [Example 62, 7-(2-chlorophenoxy)-5-{[2-methoxy-4-(piperazin-1-yl)phenyl]amino}pyrido[3,4-d]pyridazin-4(3H)-one]",2
3,"COc1cc(N2CCNCC2)ccc1Nc1nc(Oc2c(Cl)cccc2Cl)cc2cn[nH]c(=O)c12 [Example 63, 7-(2,6-dichlorophenoxy)-5-{[2-methoxy-4-(piperazin-1-yl)phenyl]amino}pyrido[3,4-d]pyridazin-4(3H)-one]",1
4,"Oc1nncc2cc(Cc3c(Cl)cccc3Cl)nc(Nc3ccc(N4CCNCC4)cc3OC(F)(F)F)c12 [Example 64, 7-(2,6-dichlorobenzyl)-5-{[4-(piperazin-1-yl)-2-(trifluoromethoxy)phenyl]amino}pyrido[3,4-d]pyridazin-4-ol]",21
5,"COc1cc(N2CCNCC2)ccc1Nc1nc(Nc2c(F)ccc(Cl)c2Cl)cc2cn[nH]c(=O)c12 [Example 65, 7-[(2,3-dichloro-6-fluorophenyl)amino]-5-{[2-methoxy-4-(piperazin-1-yl)phenyl]amino}pyrido[3,4-d]pyridazin-4(3H)-one]",1
6,"COc1cc(N2CCN3CCCC3C2)ccc1Nc1nc(Cc2c(Cl)cccc2Cl)cc2cn[nH]c(=O)c12 (centres unmarked) [Example 66, 7-(2,6-dichlorobenzyl)-5-{[4-(hexahydropyrrolo[1,2-a]pyrazin-2(1H)-yl)-2-methoxyphenyl]amino}pyrido[3,4-d]pyridazin-4(3H)-one]",10
7,"COc1cc(N2CCNCC2)ccc1Nc1nc(Nc2ccc(F)c(Cl)c2Cl)cc2cnnc(O)c12 [Example 67, 7-[(2,3-dichloro-4-fluorophenyl)amino]-5-{[2-methoxy-4-(piperazin-1-yl)phenyl]amino}pyrido[3,4-d]pyridazin-4-ol]",2
8,"COc1cc(N2CCNCC2)ccc1Nc1cc(Nc2c(Cl)cccc2Cl)nc2cn[nH]c(=O)c12 [Example 68, 2-[(2,6-dichlorophenyl)amino]-4-{[2-methoxy-4-(piperazin-1-yl)phenyl]amino}pyrido[2,3-d]pyridazin-5(6H)-one]",2
9,"Cc1c(Nc2nc(Cc3c(Cl)cccc3Cl)cc3cn[nH]c(=O)c23)ccc(N2CCNCC2)c1C [Example 69, 7-(2,6-dichlorobenzyl)-5-{[2,3-dimethyl-4-(piperazin-1-yl)phenyl]amino}pyrido[3,4-d]pyridazin-4(3H)-one]",1
10,"COc1cc(N2CCNCC2)ccc1Nc1cc(Cc2c(Cl)cccc2Cl)nc2cn[nH]c(=O)c12 [Example 70, 2-(2,6-dichlorobenzyl)-4-{[2-methoxy-4-(piperazin-1-yl)phenyl]amino}pyrido[2,3-d]pyridazin-5(6H)-one]",1
11,"COc1cc(N2CCNCC2)ccc1Nc1nc(Nc2c(F)cc(F)cc2Cl)cc2cnnc(O)c12 [Example 71, 7-[(2-chloro-4,6-difluorophenyl)amino]-5-{[2-methoxy-4-(piperazin-1-yl)phenyl]amino}pyrido[3,4-d]pyridazin-4-ol]",1
12,"COc1cc(N2CCNCC2)c(C)cc1Nc1nc(Cc2c(Cl)cccc2Cl)cc2cn[nH]c(=O)c12 [Example 72, 7-(2,6-dichlorobenzyl)-5-{[2-methoxy-5-methyl-4-(piperazin-1-yl)phenyl]amino}pyrido[3,4-d]pyridazin-4(3H)-one]",12
13,"Cc1cc(Nc2nc(Cc3c(Cl)cccc3Cl)cc3cn[nH]c(=O)c23)c(F)cc1N1CCNCC1 [Example 73, 7-(2,6-dichlorobenzyl)-5-{[2-fluoro-5-methyl-4-(piperazin-1-yl)phenyl]amino}pyrido[3,4-d]pyridazin-4(3H)-one]",1
14,"COc1cc2c(cc1Nc1cc(Cc3c(Cl)cccc3Cl)cc3cn[nH]c(=O)c13)CNCC2 [Example 74, 6-(2,6-dichlorobenzyl)-8-[(6-methoxy-1,2,3,4-tetrahydroisoquinolin-7-yl)amino]phthalazin-1(2H)-one]",4
15,"COc1cc(N2CCNCC2)ccc1Nc1nc(Oc2c(F)cccc2F)cc2cn[nH]c(=O)c12 [Example 75, 7-(2,6-difluorophenoxy)-5-{[2-methoxy-4-(piperazin-1-yl)phenyl]amino}pyrido[3,4-d]pyridazin-4(3H)-one]",4
16,"COc1cc(N2CCNCC2)ccc1Nc1nc(Oc2ccccc2F)cc2cnnc(O)c12 [Example 76, 7-(2-fluorophenoxy)-5-{[2-methoxy-4-(piperazin-1-yl)phenyl]amino}pyrido[3,4-d]pyridazin-4-ol]",4
17,"COc1cc(N2CCNCC2)ccc1Nc1nc(Nc2ccc(Cl)c(Cl)c2Cl)cc2cn[nH]c(=O)c12 [Example 77, 5-{[2-methoxy-4-(piperazin-1-yl)phenyl]amino}-7-[(2,3,4-trichlorophenyl)amino]pyrido[3,4-d]pyridazin-4(3H)-one]",4
18,"COc1cc(N2CCNCC2)ccc1Nc1nc(Oc2cccc(F)c2F)cc2cnnc(O)c12 [Example 78, 7-(2,3-difluorophenoxy)-5-{[2-methoxy-4-(piperazin-1-yl)phenyl]amino}pyrido[3,4-d]pyridazin-4-ol]",4

row,Structure (SMILES),Ki [nM]
1,"COc1cc(N2CCNCC2)ccc1Nc1nc(Oc2cccc(Cl)c2Cl)cc2cn[nH]c(=O)c12 [Example 79, 7-(2,3-dichlorophenoxy)-5-{[2-methoxy-4-(piperazin-1-yl)phenyl]amino}pyrido[3,4-d]pyridazin-4(3H)-one]",5
2,"COc1cc(N2CCNCC2)ccc1Nc1nc(Oc2c(Cl)cc(F)cc2Cl)cc2cn[nH]c(=O)c12 [Example 80, 7-(2,6-dichloro-4-fluorophenoxy)-5-{[2-methoxy-4-(piperazin-1-yl)phenyl]amino}pyrido[3,4-d]pyridazin-4(3H)-one]",1
3,"COc1cc(N2CCNCC2)ccc1Nc1nc(Oc2ccncc2Cl)cc2cn[nH]c(=O)c12 [Example 81, 7-[(3-chloropyridin-4-yl)oxy]-5-{[2-methoxy-4-(piperazin-1-yl)phenyl]amino}pyrido[3,4-d]pyridazin-4(3H)-one]",> 470
4,"COc1cc(N2CCNCC2)ccc1Nc1nc(Oc2cccc(C)c2C)cc2cnnc(O)c12 [Example 82, 7-(2,3-dimethylphenoxy)-5-{[2-methoxy-4-(piperazin-1-yl)phenyl]amino}pyrido[3,4-d]pyridazin-4-ol]",4
5,"COc1cc(N2CCNCC2)ccc1Nc1nc(Oc2ccncc2F)cc2cnnc(O)c12 [Example 83, 7-[(3-fluoropyridin-4-yl)oxy]-5-{[2-methoxy-4-(piperazin-1-yl)phenyl]amino}pyrido[3,4-d]pyridazin-4-ol]",> 470
6,"COc1cc(N2CCNCC2)ccc1Nc1nc(Oc2ccc(Cl)c(Cl)c2Cl)cc2cnnc(O)c12 [Example 84, 5-{[2-methoxy-4-(piperazin-1-yl)phenyl]amino}-7-(2,3,4-trichlorophenoxy)pyrido[3,4-d]pyridazin-4-ol]",5
7,"COc1cc(N2CCNCC2)ccc1Nc1nc(Oc2ccc(Cl)cc2Cl)cc2cn[nH]c(=O)c12 [Example 85, 7-(2,4-dichlorophenoxy)-5-{[2-methoxy-4-(piperazin-1-yl)phenyl]amino}pyrido[3,4-d]pyridazin-4(3H)-one]",5
8,"COc1cc(N2CCNCC2)ccc1Nc1nc(N[C@H]2CC[C@H](O)CC2)cc2cnnc(O)c12 [Example 86, 7-[(trans-4-hydroxycyclohexyl)amino]-5-{[2-methoxy-4-(piperazin-1-yl)phenyl]amino}pyrido[3,4-d]pyridazin-4-ol]",2
9,"COc1cc(N2CCNCC2)ccc1Nc1nc(OC2CCCC2)cc2cnnc(O)c12 [Example 87, 7-(cyclopentyloxy)-5-{[2-methoxy-4-(piperazin-1-yl)phenyl]amino}pyrido[3,4-d]pyridazin-4-ol]",4
10,"COc1cc2c(cc1Nc1nc(Cc3c(Cl)cccc3Cl)cc3cn[nH]c(=O)c13)CCNC2 [Example 88, 7-(2,6-dichlorobenzyl)-5-[(7-methoxy-1,2,3,4-tetrahydroisoquinolin-6-yl)amino]pyrido[3,4-d]pyridazin-4(3H)-one]",4
11,"COc1cc(N2CCNCC2)ccc1Nc1cc(Oc2ccccc2Cl)nc2cn[nH]c(=O)c12 [Example 89, 2-(2-chlorophenoxy)-4-{[2-methoxy-4-(piperazin-1-yl)phenyl]amino}pyrido[2,3-d]pyridazin-5(6H)-one]",15
12,"Oc1nncc2cc(N3CCC(F)CC3)nc(Nc3ccc(CN4CCCC4)cc3Cl)c12 [Example 90, 5-{[2-chloro-4-(pyrrolidin-1-ylmethyl)phenyl]amino}-7-(4-fluoropiperidin-1-yl)pyrido[3,4-d]pyridazin-4-ol]",7
13,"COc1cc2c(cc1Nc1cc(Cc3ccccc3Cl)nc3cnnc(O)c13)CNCC2 [Example 91, 2-(2-chlorobenzyl)-4-[(6-methoxy-1,2,3,4-tetrahydroisoquinolin-7-yl)amino]pyrido[2,3-d]pyridazin-5-ol]",55
14,"COc1cc(CN2CCNCC2)ccc1Nc1cc(Cc2ccccc2Cl)nc2cn[nH]c(=O)c12 [Example 92, 2-(2-chlorobenzyl)-4-{[2-methoxy-4-(piperazin-1-ylmethyl)phenyl]amino}pyrido[2,3-d]pyridazin-5(6H)-one]",15
15,"Oc1nncc2cc(NCC3CC3)nc(Nc3ccc(CN4CCCC4)cc3Cl)c12 [Example 93, 5-{[2-chloro-4-(pyrrolidin-1-ylmethyl)phenyl]amino}-7-[(cyclopropylmethyl)amino]pyrido[3,4-d]pyridazin-4-ol]",4
16,"COc1cc(CN2CCOCC2)ccc1Nc1cc(Cc2ccccc2Cl)nc2cnnc(O)c12 [Example 94, 2-(2-chlorobenzyl)-4-{[2-methoxy-4-(morpholin-4-ylmethyl)phenyl]amino}pyrido[2,3-d]pyridazin-5-ol]",51
17,"CCOc1cc(CN2CCCC2)ccc1Nc1nc(Oc2ccccc2Cl)cc2cn[nH]c(=O)c12 [Example 95, 7-(2-chlorophenoxy)-5-{[2-ethoxy-4-(pyrrolidin-1-ylmethyl)phenyl]amino}pyrido[3,4-d]pyridazin-4(3H)-one]",138
